“And” between values parts separate entries of the source, which are not always exact repeats. Equal entries are not always repeated. Where two headings read alike, the source gives them in different places.
Legend:
SUDHL10 [1] = assay: Induction of cytotoxicity (CellTiter-Glo, 5 h), SUDHL10
SUDHL5 [2] = assay: Induction of cytotoxicity (CellTiter-Glo, 5 h), SUDHL5
SUDHL5 [3] = assay: Induction of caspase-3/7 activity (Caspase-Glo 3/7), SUDHL5; format: cell-based; settings: caspase-3/7 induction, SUDHL5 cells, 3 h treatment, median
Description: (§1) Induction of Caspase-317 Activity Upon Treatment of Cells with Selected Compounds
(§2) The BH3-domain of MCL-1 sequesters pro-apoptotic proteins, thereby inhibiting apoptosis. In contrast, MCL-1 inhibitors are expected to antagonize this effect leading to an increase in apoptosis, which can be determined by measuring the activity of caspase-3/7.
(§3) The activity of caspase-3/7 was determined in DLBCL (Diffuse large B-cell lymphoma) cell lines (SUDHL5 and SUDHL10) upon treatment with different compounds, using the Caspase-Glo® 3/7 reagent from Promega (G8092).
(§4) Rim wells were excluded. The cells were incubated for 3 h hours in a humidified incubator at 37° C.
(§5) For the evaluation of the results, the background measured with “medium-only” was subtracted from all other values. […] The Bella DRC Master Sheet was used to calculate EC50s, with fixed C0=1 and CI=plateaulmax induction for the reference compound.

SUDHL10 [4] = assay: Induction of caspase-3/7 activity (Caspase-Glo 3/7), SUDHL10; format: cell-based; settings: caspase-3/7 induction, SUDHL10 cells, 3 h treatment, median
Description: as §1, §2, §3, §4, §5

MCL-1 = MCL-1 (Homo sapiens, UniProt Q07820); assay: Protein-protein interaction assay MCL-1/Noxa BH3 peptide (MCL-1 assay), TR-FRET; format: binding; settings: MBP-MCL-1 / Noxa BH3-derived peptide, median
Description: Protein-Protein Interaction Assay: MCL-1/Noxa BH3 Peptide (MCL-1 Assay) […]
In the assay 11 different concentrations of each compound (0.1 nM, 0.33 nM, 1.1 nM, 3.8 nM, 13 nM, 44 nM, 0.15 μM, 0.51 μM, 1.7 μM, 5.9 μM and 20 μM) were typically measured as duplicates in the same microtiter plate. For that, 100-fold concentrated DMSO solutions were prepared by serial dilutions (1:3.4) of a 2 mM stock solution in a clear, 384-well microtiter plate (Greiner Bio-One, Frickenhausen, Germany). From there, 50 ni were transferred in a dark test plate (Greiner Bio-One, Frickenhausen, Germany). The assay was initiated by addition of 2 μl of a 2.5-fold concentrated MBP-MCL-1 solution (usually for a 1 nM end concentration in 5 μl reaction volume) in aqueous assay buffer [50 mM Tris/HCl pH 7, 100 mM sodium chloride (NaCl), 50 mM potassium fluoride (KF), 0.005% Tween-20, 2 mM DTT, 0.1% bovine gamma globulin (BGG)] to the compounds in the assay plate. This was followed by a 10-minute incubation step at 22° C. for pre-equilibration of the putative complex between MBP-MCL-1 and the compounds. After that.
The mixture was incubated in the dark for one hour at 22° C. and then overnight at 4° C. The formation of MCL-1/Noxa complexes was determined by measuring the resonance energy transfer of the anti-MBP- Eu-cryptate antibody to the streptavidin-XL665 present in the reaction. For that purpose, the fluorescence emission at 620 nm and 665 nm after excitation at 330-350 nm was measured in a TR-FRET measuring instrument, for instance a Rubystar or a Pherastar (both from BMG Lab Technologies, Offenburg, Germany) or a Viewlux (Perkin-Elmer). The ratio of the emission at 665 nm and at 622 nm was used as indicator of the amount of MCL-1/NOXA complexes present.
The resulting data (ratio) were normalized, taking 0% inhibition as the mean value of control measurements (usually 32 data points) where all reagents were included. In this case 50 nl DMSO were used instead of compounds. A 100% inhibition corresponded to the mean value of control measurements (usually 32 data points) where all reagents except MCL-1 were included. IC50 values were determined by regression analysis based on a 4 parameter equation (minimum, maximum, IC50, Hill; Y=Max+(Min−Max)/(1+(X/IC50)^Hill) using the Screener Software (Genedata).

SUDHL5 [5] = assay: Anti-proliferative effect (CellTiter-Glo, 72 h), SUDHL5; format: cell-based; settings: Homo sapiens, SU-DHL-5, 72 h, SUDHL5 cells, antiproliferation, 72 h incubation, median, read-out: Antiproli SUDHL5 [M] (median)
Description: (§6) Assessment of the Anti-Proliferative Effect of Compounds in Different Cell Lines
(§7) The impact of compounds on the proliferation of different cell lines was assessed using the CellTiter-Glo® Luminescent Cell Viability reagent from Promega (G7573). Of note, SUDHL10 and SUDHL5 (DLBCL), NCI-H929 (Multiple Myeloma), A2780 (ovarian carcinoma) as well as MV-4-11(AML) cells are sensitive to MCL-1 inhibition.
(§8) In parallel, cells were plated in a reference (day 0) plate for time zero determination.
(§9) Rim wells were excluded. The cells were incubated for 72 h hours in a humidified incubator at 37° C. The day 0 plate was measured by adding 30 μl/well of CTG solution (CellTiter-Glo® Luminescent Cell Viability reagent, Promega G7573) to time zero wells in the reference plate followed by a 10 minutes incubation and luminescence reading at 0.1 ms, using the PHERAstar FS microplate reader (BMG Labtech).
(§10) After 72 h incubation, the treated plates were measured in the same way as the day 0 plate mentioned above.

A2780 = assay: Anti-proliferative effect (CellTiter-Glo, 72 h), A2780; format: cell-based; settings: Homo sapiens, A2780, 72 h, A2780 cells, median, read-out: IC50 antiproliferation assay A2780 [M] (median)
Description: as §6, §7, §8, §9, §10

[6] = Homo sapiens, SU-DHL10, 5 h, read-out: Cytotox SUDHL10 [M] (median), SUDHL10 cells, cytotoxicity induction, CellTiter-Glo, 5 h incubation, median
[7] = Homo sapiens, SU-DHL-5, 5 h, read-out: Cytotox SUDHL5 [M] (median), SUDHL5 cells, cytotoxicity induction, CellTiter-Glo, 5 h incubation, median
[8] = read-out: Cytotox SUDHL10 [M] (median), SUDHL10 cells, cytotoxicity induction, CellTiter-Glo, 5 h incubation, median

Sequence of MCL-1 (Q07820 whole entry): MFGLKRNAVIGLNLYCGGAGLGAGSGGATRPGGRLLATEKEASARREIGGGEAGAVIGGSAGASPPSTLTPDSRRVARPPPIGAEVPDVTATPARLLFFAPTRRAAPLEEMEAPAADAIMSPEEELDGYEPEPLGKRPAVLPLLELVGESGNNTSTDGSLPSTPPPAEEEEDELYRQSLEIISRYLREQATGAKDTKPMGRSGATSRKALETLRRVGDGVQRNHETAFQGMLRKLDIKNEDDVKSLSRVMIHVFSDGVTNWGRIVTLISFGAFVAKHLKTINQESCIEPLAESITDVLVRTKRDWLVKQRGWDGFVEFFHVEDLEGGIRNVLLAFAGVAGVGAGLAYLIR

Row | Compound | IC50 (SUDHL10 [1]; [6]) [M] | IC50 (SUDHL5 [2]; [7]) [M] | EC50 (SUDHL5 [3]; Homo sapiens, SU-DHL-5, 3 h) [µM] | EC50 (SUDHL10 [4]; Homo sapiens, SU-DHL10, 3 h) [µM] | IC50 (MCL-1) [µM] | IC50 (SUDHL5 [5]) [M] | IC50 (A2780) [M] | IC50 (SUDHL10 [1]; [8]) | IC50 (SUDHL5 [2]; read-out: Cytotox SUDHL5 [M] (median), SUDHL5 cells, cytotoxicity induction, CellTiter-Glo, 5 h incubation, median) | EC50 (SUDHL5 [3]) | EC50 (SUDHL10 [4]) [µM]
1 | CC(=O)N1CCN(c2ccc(OCc3nn(C)c4c3-c3cccc5c(CCCOc6cccc7ccccc67)c(C(=O)O)n(c35)CC=CCOC4)cc2)CC1 (racemic) [Example 1-1, (rac)-(E/Z)-3-{[4-(4-acetylpiperazin-1-yl)phenoxy]methyl}-1-methyl-7-[3-(naphthalen-1-yloxy)propyl]-1,10,13,25-tetrahydropyrazolo[4′,3′:9,10][1,6]oxazacycloundecino[8,7,6-hi]indole-8-carboxylic Acid] | > 3.3e-05 | > 3.3e-05 | 14.8 | 22.5 |  |  |  |  |  |  | 
2 | Cn1nc(COc2ccc(N3CCNCC3)cc2)c2c1COCC=CCn1c(C(=O)O)c(CCCOc3cccc4ccccc34)c3cccc-2c31 (racemic) [Example 1-2, (rac)-(E/Z)-1-methyl-7-[3-(naphthalen-1-yloxy)propyl]-3-{[4-(piperazin-1-yl)phenoxy]methyl}-1,10,13,15-tetrahydropyrazolo[4′,3′:9,10][1,6]oxazacycloundecino[8,7,6-hi]indole-8-carboxylic Acid] | > 3.3e-05 | > 3.3e-05 | > 33 | > 33 | 0.0706 |  |  |  |  |  | 
3 | Cn1nc(COc2ccc(N3CCN(C(=O)OC(C)(C)C)CC3)cc2)c2c1COCCCCn1c(C(=O)O)c(CCCOc3cccc4ccccc34)c3cccc-2c31 (racemic) [Example 1-6, (rac)-3-({4-[4-(tert-butoxycarbonyl)piperazin-1-yl]phenoxy}methyl)-1-methyl-7-[3-(naphthalen-1-yloxy)propyl]-1,10,11,12,13,15-hexahydropyrazolo[4′,3′:9,10][1,6]oxazacycloundecino[8,7,6-hi]indole-8-carboxylic Acid] | > 3.3e-05 | 1.15e-05 | 7.67 | 11.9 | 0.0187 | 1.37e-06 |  |  |  |  | 
4 | CN1CCCn2c(C(=O)O)c(CCCOc3cccc4ccccc34)c3cccc(c32)-c2c(COCc3ccccc3)nn(C)c2C1 (racemic) [Example 1-93, (rac)-11-[(benzyloxy)methyl]-7,9-dimethyl-1-[3-(naphthalen-1-yloxy)propyl]-4,5,6,7,8,9-hexahydropyrazolo[3′,4′:7,8][1,5]diazecino[9,10,1-hi]indole-2-carboxylic Acid] | > 3.3e-05 | > 3.3e-05 | > 33 | 31.8 | 0.0749 |  |  |  |  |  | 
5 | Cn1nc(COCc2ccccc2)c2c1COCC=CCn1c(C(=O)O)c(CCCOc3cccc4ccccc34)c3cccc-2c31 (racemic) [Example 1-94, (rac)-(E/Z)-3-[(benzyloxy)methyl]-1-methyl-7-[3-(naphthalen-1-yloxy)propyl]-1,10,13,15-tetrahydropyrazolo[4′,3′9,10][,6]oxazacycloundecino[8,7,6-hi]indole-8-carboxylic Acid] | > 3.3e-05 | > 3.3e-05 | > 33 | > 33 | 0.141 |  |  |  |  |  | 
6 | Cn1nc2c(c1CN1CCOCC1)-c1cccc3c(CCCOc4cccc5ccccc45)c(C(=O)O)n(c13)CCCCOC2 (racemic) [Example 078, (rac)-2-Methyl-3-(morpholin-4-ylmethyl)-7-[3-(naphthalen-1-yloxy)propyl]-2,10,11,12,13,15-hexahydropyrazolo[4′,3′:9,10][1,6]oxazacycloundecino[8,7,6-hi]indole-8-carboxylic Acid] |  |  | 14.1 | > 33 | 0.0131 |  | 1.96e-05 |  |  |  | 
7 | Cn1nc(COc2ccccc2)c2c1COCCCCn1c(C(=O)O)c(CCCOc3cccc4ccccc34)c3cccc-2c31 (single isomer, unassigned) [Example 1-79, 1-methyl-7-[3-(naphthalen-1-yloxy)propyl]-3-(phenoxymethyl)-1,10,11,12,13,15-hexahydropyrazolo[4′3′:9,10][1,6]oxazacycloundecino[8,7,6-hi]indole-8-carboxylic Acid] | 3.09e-05 | > 3.3e-05 | > 33 | 20.7 | 0.656 |  |  |  |  |  | 
8 | Cn1nc(COc2ccccc2)c2c1COCCCCn1c(C(=O)O)c(CCCOc3cccc4ccccc34)c3cccc-2c31 (single isomer, unassigned) [Example 1-80, 1-methyl-7-[3-(naphthalen-1-yloxy)propyl]-3-(phenoxymethyl)-1,10,11,12,13,15-hexahydropyrazolo[4′,3′:9,10][1,6]oxazacycloundecino[8,7,6-hi]indole-8-carboxylic Acid] |  |  |  |  | 0.0501 |  |  | > 3.3e-05 M | > 3.3e-05 | > 33 µM | > 33
9 | Cc1ccc2c(CCCOc3cccc4ccccc34)c(C(=O)O)n3c2c1-c1c(nn(C)c1C)COCCCC3 (single isomer, unassigned; enantiomer 1) [Example 076, 2,3,4-trimethyl-7-[3-(naphthalen-1-yloxy)propyl]-2,10,11,12,13,15-hexahydropyrazolo[4′,3′:9,10][1,6]oxazacycloundecino[8,7,6-hi]indole-8-carboxylic Acid (Enantiomer 1)] |  |  |  |  | 0.00145 |  | 2.28e-05 |  |  | 1.32 µM | 3.54
10 | Cc1nn(C)c2c1-c1cccc3c(CCCOc4cccc5ccccc45)c(C(=O)O)n(c13)CCCN(c1ccc(N3CCN(S(=O)(=O)N(C)C)CC3)cc1)C2 (single isomer, unassigned; enantiomer 2) [Example 1-107, 7-{4-[4-(Dimethylsulfamoyl)piperazin-1-yl]phenyl}-9,11-dimethyl-1-[3-(1-naphthyloxy)propyl]-4,5,6,7,8,9-hexahydropyrazolo[3′,4′:7,8][1,5]diazecino[9,10,1-hi]indole-2-carboxylic Acid (Enantiomer 2)] |  |  |  |  | 0.0897 |  |  | 2.89e-05 M and > 3.3e-05 M |  | 19.4 µM and > 33 µM | 
